Measurements taken from PubChem BioAssay (NCI).
Values joined by “and” are separate entries in the source; they are usually repeats but may differ in a detail not shown here. Equal entries are not always repeated.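 Tested at 5 concentrations; 48 h exposure; 96-well plates; endpoints linearly interpolated, else capped at highest concentration. GI50: concentration for 50% inhibition of growth. Definition used: TGI = concentration required for complete inhibition of growth.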

Legend:
Assay in all cases: DTP human tumour cell line panel, 48 h
[1] = system: M14 melanoma
[2] = system: KM12 colon
[3] = system: RPMI-8226 leukemia
[4] = system: U251 CNS
[5] = system: UACC-257 melanoma
[6] = system: OVCAR-3 ovarian
[7] = system: 786-0 renal
[8] = system: MOLT-4 leukemia
[9] = system: SK-OV-3 ovarian
[10] = system: SK-MEL-2 melanoma
[11] = system: PC-3 prostate
[12] = system: HT29 colon
[13] = system: SF-295 CNS
[14] = system: OVCAR-8 ovarian
[15] = system: K-562 leukemia
[16] = system: HCT-116 colon
[17] = system: SF-539 CNS
[18] = system: EKVX NSCLC
[19] = system: SW-620 colon
[20] = system: SN12C renal
[21] = system: SK-MEL-5 melanoma
[22] = system: NCI-H522 lung
[23] = system: CAKI-1 renal
[24] = system: A549 NSCLC
[25] = system: DU-145 prostate
[26] = system: NCI-H460 lung
[27] = system: SNB-19 CNS
[28] = system: NCI/ADR-RES ovarian
[29] = system: MDA-MB-435
[30] = system: HS 578T breast
[31] = system: TK-10 renal
[32] = system: A498 renal
[33] = system: SNB-75 CNS
[34] = system: MDA-MB-231 breast
[35] = system: OVCAR-5 ovarian
[36] = system: MDA-N
[37] = system: SR leukemia
[38] = system: SF-268 CNS
[39] = system: CCRF-CEM leukemia
[40] = system: UACC-62 melanoma
[41] = system: COLO 205 colon
[42] = system: UO-31 renal
[43] = system: HCC-2998 colon
[44] = system: NCI-H226 lung
[45] = system: MCF7 breast
[46] = system: HCT-15 colon
[47] = system: HOP-92 NSCLC
[48] = system: NCI-H23 lung
[49] = system: BT-549 breast
[50] = system: LOX IMVI melanoma
[51] = system: HOP-62 NSCLC
[52] = system: RXF 393 renal
[53] = system: T-47D breast
[54] = system: HL-60(TB) leukemia
[55] = system: SK-MEL-28 melanoma
[56] = system: MALME-3M melanoma
[57] = system: OVCAR-4 ovarian
[58] = system: IGROV1 ovarian
[59] = system: ACHN renal

NC(=S)N/N=C/c1ncccc1N
TGI [1]: 5.27 µM and 2.62 µM | GI50 [2]: 5.38 µM | TGI [2]: > 100 µM | GI50 [3]: 1.45 µM | TGI [3]: > 100 µM | GI50 [4]: 0.659 µM | TGI [4]: > 100 µM | TGI [5]: > 80.7 µM | GI50 [6]: 2.54 µM | TGI [6]: > 56.6 µM | GI50 [7]: 0.419 µM | TGI [7]: > 33.6 µM | GI50 [8]: 1.04 µM | TGI [8]: 44.8 µM and > 10 µM | GI50 [9]: 3.24 µM | TGI [9]: 51.3 µM and > 10 µM | GI50 [10]: 75.7 µM | TGI [10]: > 100 µM | GI50 [11]: 6.5 µM | TGI [11]: > 100 µM | GI50 [12]: 2.19 µM | TGI [12]: > 63.4 µM | GI50 [13]: 0.654 µM | TGI [13]: 10.7 µM and 5.07 µM | TGI [14]: > 100 µM | GI50 [15]: 4.82 µM | TGI [15]: > 93.4 µM | GI50 [16]: 1.16 µM | TGI [16]: > 33.7 µM | TGI [17]: 1.23 µM and 0.673 µM | GI50 [18]: 5.13 µM | TGI [18]: > 100 µM | GI50 [19]: 1.45 µM | TGI [19]: > 48.4 µM | GI50 [20]: 0.789 µM | TGI [20]: 16.5 µM and > 10 µM | GI50 [21]: 0.534 µM | TGI [21]: 22.3 µM and > 10 µM | GI50 [22]: 1.71 µM | TGI [22]: 6.62 µM and > 10 µM | GI50 [23]: 0.357 µM | TGI [23]: > 38.5 µM | GI50 [24]: 3.16 µM | TGI [24]: > 100 µM | GI50 [25]: 1.04 µM | GI50 [26]: 0.654 µM | TGI [26]: 12.6 µM and > 10 µM | GI50 [27]: 1.78 µM | TGI [27]: > 84.9 µM | GI50 [28]: 1.66 µM | TGI [28]: 14.9 µM and 8.77 µM | GI50 [29]: 5.17 µM | TGI [29]: > 100 µM | GI50 [30]: 37.5 µM | TGI [30]: > 100 µM | GI50 [31]: 50.5 µM | TGI [31]: > 100 µM | TGI [32]: > 73.1 µM | GI50 [33]: 0.674 µM | TGI [33]: 25.3 µM and > 8.46 µM | GI50 [34]: 3.79 µM | TGI [34]: > 100 µM | GI50 [35]: 5.98 µM | TGI [35]: > 100 µM | TGI [36]: > 10 µM | TGI [37]: 18.9 µM and > 10 µM | GI50 [38]: 0.731 µM | TGI [38]: 51.9 µM and > 8.29 µM | GI50 [39]: 1.14 µM | TGI [39]: > 58.4 µM | GI50 [40]: 0.338 µM | TGI [40]: 7.67 µM and > 10 µM | GI50 [41]: 2.54 µM | TGI [41]: 12.1 µM and > 10 µM | GI50 [42]: 0.293 µM | TGI [42]: 3.69 µM and 1.41 µM | GI50 [43]: 1.14 µM | TGI [43]: > 100 µM | GI50 [44]: 1.01 µM | TGI [44]: 8.24 µM and > 10 µM | GI50 [45]: 0.32 µM | TGI [45]: 27.2 µM and > 10 µM | GI50 [46]: 3.14 µM | TGI [46]: > 100 µM | GI50 [47]: > 87.2 µM | TGI [47]: > 100 µM | TGI [48]: 6.83 µM and > 3.07 µM | GI50 [49]: 2.96 µM | TGI [49]: > 100 µM | GI50 [50]: 0.439 µM | TGI [50]: 8.25 µM and > 10 µM | GI50 [51]: 0.739 µM | TGI [51]: 13.1 µM and 9.78 µM | GI50 [52]: 0.489 µM | TGI [52]: > 47.5 µM | GI50 [53]: 1.92 µM | TGI [53]: 23.2 µM and > 10 µM | GI50 [54]: 0.867 µM | TGI [54]: 6.45 µM and > 6.69 µM | GI50 [55]: 12.6 µM | TGI [55]: > 100 µM | GI50 [56]: 3 µM | TGI [56]: > 90.5 µM | GI50 [57]: 3.57 µM | TGI [57]: > 50 µM | GI50 [58]: 0.807 µM | TGI [58]: > 100 µM

COc1cc([C@H]2OC[C@H]3[C@@H]2CO[C@@H]3c2cc(OC)c3c(c2)OCO3)cc(OC)c1OC
TGI [1]: > 100 µM | TGI [2]: > 100 µM | TGI [3]: > 100 µM | TGI [4]: > 100 µM | TGI [5]: > 100 µM | TGI [6]: > 100 µM | TGI [7]: > 100 µM | TGI [9]: > 100 µM | TGI [10]: > 100 µM | TGI [11]: > 100 µM | TGI [12]: > 100 µM | TGI [13]: > 100 µM | TGI [14]: > 100 µM | TGI [15]: > 100 µM | TGI [16]: > 100 µM | TGI [17]: > 100 µM | TGI [18]: > 100 µM | TGI [19]: > 100 µM | TGI [20]: > 100 µM | TGI [21]: 48.7 µM | TGI [22]: > 100 µM | TGI [23]: > 100 µM | TGI [24]: > 100 µM | TGI [25]: > 100 µM | TGI [26]: > 100 µM | TGI [27]: > 100 µM | TGI [28]: > 100 µM | TGI [29]: > 100 µM | TGI [30]: > 100 µM | TGI [31]: > 100 µM | TGI [59]: > 100 µM | TGI [32]: > 100 µM | TGI [33]: > 100 µM | TGI [34]: > 100 µM | TGI [35]: > 100 µM | TGI [36]: > 100 µM | TGI [37]: > 100 µM | TGI [38]: > 100 µM | TGI [40]: > 100 µM | TGI [41]: > 100 µM | TGI [42]: > 100 µM | TGI [43]: > 100 µM | TGI [44]: > 100 µM | TGI [45]: > 100 µM | TGI [46]: > 100 µM | TGI [47]: > 100 µM | TGI [48]: > 100 µM | TGI [49]: > 100 µM | TGI [50]: > 100 µM | TGI [51]: > 100 µM | TGI [53]: > 100 µM | TGI [54]: > 100 µM | TGI [55]: > 100 µM | TGI [57]: > 100 µM | TGI [58]: > 100 µM

O=C(O)c1nc(-c2ccccc2)[nH]c1C(=O)O
TGI [1]: 25.2 µM | TGI [2]: 14.6 µM | TGI [3]: 4.14 µM | TGI [4]: 8.33 µM | TGI [5]: 30.3 µM | TGI [6]: 26.4 µM | TGI [7]: 22.5 µM | TGI [8]: 9.64 µM | TGI [9]: 32.4 µM | TGI [10]: 21.3 µM | TGI [11]: 11.6 µM | TGI [12]: 20.2 µM | TGI [13]: 30.9 µM | TGI [14]: 29.7 µM | TGI [15]: 15.3 µM | TGI [16]: 16 µM | TGI [17]: 22.7 µM | TGI [18]: 33 µM | TGI [19]: 6.78 µM | TGI [20]: 26.6 µM | TGI [21]: 28.6 µM | TGI [22]: 32 µM | TGI [23]: 27.5 µM | TGI [24]: 29.3 µM | TGI [25]: 28.2 µM | TGI [26]: 29.2 µM | TGI [27]: 25.1 µM | TGI [28]: > 82.8 µM | TGI [29]: 21.3 µM | TGI [30]: > 61.2 µM | TGI [31]: 28.8 µM | TGI [59]: 30.7 µM | TGI [32]: 29.1 µM | TGI [33]: 33.6 µM | TGI [34]: 11.3 µM | TGI [35]: 31.7 µM | TGI [36]: 24.4 µM | TGI [37]: 2.36 µM | TGI [38]: 34.8 µM | TGI [39]: 3.04 µM | TGI [40]: 32.4 µM | TGI [41]: 31.7 µM | TGI [42]: 24.8 µM | TGI [43]: 12.8 µM | TGI [44]: 33.1 µM | TGI [45]: 15.7 µM | TGI [46]: 38.8 µM | TGI [47]: 32.4 µM | TGI [48]: 31.8 µM | TGI [49]: 35.9 µM | TGI [50]: 9.47 µM | TGI [51]: 32.6 µM | TGI [52]: 26.5 µM | TGI [53]: 33.1 µM | TGI [54]: 0.49 µM | TGI [55]: 30.2 µM | TGI [56]: 30.6 µM | TGI [57]: 32.1 µM | TGI [58]: 28.2 µM
